In ChEMBL document CHEMBL1124243, “Application of the message-address concept in the design of highly potent and selective non-peptide delta opioid receptor antagonists” (J Med Chem, 1988):
Active and inactive are the calls of the source. The calls are words filed in the database; no cut-off is given here.

Legend:
[1] = target: Kappa-type opioid receptor (Cavia porcellus) (UniProt P41144); test: Antagonistic activity against Opioid receptor kappa 1 using ethylketazocine in guinea pig ileum preparation; format: functional, tissue-based
Kappa-type opioid receptor (Cavia porcellus), sequence (P41144 whole entry): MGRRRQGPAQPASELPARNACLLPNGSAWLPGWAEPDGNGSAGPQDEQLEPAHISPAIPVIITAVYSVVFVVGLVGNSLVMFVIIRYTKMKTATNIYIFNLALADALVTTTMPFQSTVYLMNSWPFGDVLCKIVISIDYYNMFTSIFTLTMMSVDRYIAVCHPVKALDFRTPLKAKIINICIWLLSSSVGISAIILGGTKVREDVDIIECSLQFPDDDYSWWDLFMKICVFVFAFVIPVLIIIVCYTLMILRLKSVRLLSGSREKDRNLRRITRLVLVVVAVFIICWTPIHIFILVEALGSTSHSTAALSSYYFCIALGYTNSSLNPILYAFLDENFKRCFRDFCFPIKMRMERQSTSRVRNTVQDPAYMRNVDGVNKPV

[2] = target: Mu-type opioid receptor (Cavia porcellus) (UniProt P97266); conditions: Ileum
Mu-type opioid receptor (Cavia porcellus), sequence (P97266 whole entry): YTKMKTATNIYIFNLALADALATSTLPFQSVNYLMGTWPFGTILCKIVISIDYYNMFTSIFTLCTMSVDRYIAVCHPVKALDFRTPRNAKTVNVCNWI
Description: Antagonistic activity against Opioid receptor mu 1 receptor using morphine in guinea pig ileum preparation

[3] = target: Delta-type opioid receptor (Mus musculus) (UniProt P32300); test: Antagonistic activity against Opioid receptor delta 1 using [D-Ala2,D-Leu5]enkephalin in mouse vas deferens preparation; format: functional
Delta-type opioid receptor (Mus musculus), sequence (P32300 whole entry): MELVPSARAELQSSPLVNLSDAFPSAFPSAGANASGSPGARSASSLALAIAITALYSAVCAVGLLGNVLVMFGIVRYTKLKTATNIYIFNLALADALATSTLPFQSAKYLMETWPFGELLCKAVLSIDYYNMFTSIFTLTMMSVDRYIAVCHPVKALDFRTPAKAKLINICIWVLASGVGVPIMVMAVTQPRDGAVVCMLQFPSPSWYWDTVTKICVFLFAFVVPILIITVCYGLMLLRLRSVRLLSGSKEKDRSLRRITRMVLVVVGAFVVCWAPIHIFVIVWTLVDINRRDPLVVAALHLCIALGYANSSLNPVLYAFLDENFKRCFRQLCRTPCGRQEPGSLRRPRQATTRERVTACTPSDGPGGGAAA

[4] = target: Mu-type opioid receptor (Cavia porcellus) (UniProt P97266); test: Antagonistic activity against Opioid receptor mu 1 using morphine in guinea pig ileum preparation; format: functional, tissue-based
[5] = target: Kappa-type opioid receptor (Cavia porcellus) (UniProt P41144); test: Antagonistic activity against Opioid receptor kappa 1 using ethylketazocine in guinea pig ileum preparation; No significant antagonism at 200 nM; format: functional, tissue-based
[6] = target: Mu-type opioid receptor (Cavia porcellus) (UniProt P97266); test: Antagonistic activity against Opioid receptor mu 1 using morphine in guinea pig ileum preparation; D means no significant antagonism at 200 nM; format: functional, tissue-based

| SMILES | Ke [1] [nM] | Ke [2] [nM] | Ke [3] [nM] | Ke [4] [nM] | Ke [5] | Ke [6] |
| --- | --- | --- | --- | --- | --- | --- |
| Oc1ccc2c3c1O[C@H]1c4[nH]c5ccccc5c4C[C@@]4(O)[C@@H](C2)N(CC2CC2)CC[C@]314 | 58 | 32 | 0.21 |  |  |  |
| COc1ccc2[nH]c3c(c2c1)C[C@@]1(O)[C@H]2Cc4ccc(O)c5c4[C@@]1(CCN2CC1CC1)[C@H]3O5 | 13 |  | 5.7 | 63 |  |  |
| Oc1ccc2c3c1O[C@H]1c4oc5ccccc5c4C[C@@]4(O)[C@@H](C2)N(CC2CC2)CC[C@]314 | 48 |  | 1.1 | 27 |  |  |
| Oc1ccc2c3c1O[C@H]1c4[nH]c5ccc(F)cc5c4C[C@@]4(O)[C@@H](C2)N(CC2CC2)CC[C@]314 | 46 | 61 | 2 |  |  |  |
| Cc1ccc2[nH]c3c(c2c1)C[C@@]1(O)[C@H]2Cc4ccc(O)c5c4[C@@]1(CCN2CC1CC1)[C@H]3O5 |  |  | 4.2 |  | inactive | inactive |
